Consider 13 compounds from PMC11597817, “Modulation of Multispecific Transporters by Uncaria tomentosa Extract and Its Major Phytoconstituents” (Pharmaceutics, 2024).

The test system of one series is OATP1B1. Also on record: method as in ref 75 (a number printed in a supplementary file, which may have a reference list of its own: not looked up in the article's list). To be noted: cited from earlier work; for inhibition: OATP1B1/3.
The test system of a further series is OATP1B3. Also on record: method as in ref 75 (a number printed in a supplementary file, which may have a reference list of its own: not looked up in the article's list). To be noted: cited from earlier work; for inhibition: OATP1B1/3.
A further series deals with rMDR1a. Also on record: method as in ref 157 (a number printed in a supplementary file, which may have a reference list of its own: not looked up in the article's list). To be noted: transcription and expression; cited from earlier work.
In a further series the test system is rMRP1. Also on record: method as in ref 156 (a number printed in a supplementary file, which may have a reference list of its own: not looked up in the article's list). Particulars: transcription and expression; cited from earlier work.
A further series concerns rMRP2. Also on record: method as in ref 157 (a number printed in a supplementary file, which may have a reference list of its own: not looked up in the article's list). To be noted: transcription and expression; cited from earlier work.
A further series relates to rNTCP. Also on record: method as in ref 157 (a number printed in a supplementary file, which may have a reference list of its own: not looked up in the article's list). Particulars: transcription and expression; cited from earlier work.
For another series, the system named is rMRP4. Details: method as in ref 157 (a number printed in a supplementary file, which may have a reference list of its own: not looked up in the article's list). To be noted: transcription and expression; cited from earlier work.
In the next series the test system is mouse MRP1. Details: method as in ref 154 (a number printed in a supplementary file, which may have a reference list of its own: not looked up in the article's list). Particulars: cited from earlier work.
The next series relates to Rat BSEP. Details: method as in ref 154 (a number printed in a supplementary file, which may have a reference list of its own: not looked up in the article's list). Particulars: cited from earlier work.
The next series concerns MDR1. To be noted: cited from earlier work.
In a further series the test system is ABCG5/8. Also on record: method as in ref 155 (a number printed in a supplementary file, which may have a reference list of its own: not looked up in the article's list). To be noted: cited from earlier work.
A further series deals with mBCRP. Also on record: method as in ref 154 (a number printed in a supplementary file, which may have a reference list of its own: not looked up in the article's list). To be noted: cited from earlier work.
For another series, the system named is NIH/3T3. Put plainly: Antiproliferative MTT assay. Format: cell-based, murine. Particulars: 72 h. As to the method:
(§1) For the determination of the antiproliferative properties of the prepared extract and selected alkaloids (isopteropodine, mitraphylline, and uncarine D), an MTT assay was applied on our […] cell panel (see Table S4). […] All were maintained in a minimal essential medium completed with 10% fetal bovine serum, 1% non-essential amino acids, and 1% penicillin–streptomycin at 37 °C in a humidified atmosphere containing 5% CO2. All cell lines were purchased from the European Collection of Cell Cultures (Salisbury, UK), except for SiHa and C33A, which were from the American Tissue Culture Collection, LGC Standards GmbH (Wesel, Germany). Cell culture media and supplements were obtained from Lonza Group Ltd. (Basel, Switzerland). Cells were seeded into 96-well plates (C33A 10,000/well, all others 5000/well); after overnight incubation, the test substances were added and incubated for another 72 h under cell-culturing conditions. Uncaria tomentosa extract and the alkaloids were tested in the 1–90 μg/mL and 1–30 μM ranges, respectively. Finally, 20 μL of 5 mg/mL MTT solution was added to each well and incubated for 4 h; the medium was discarded, and the precipitated formazan crystals were dissolved in DMSO for 60 min with shaking. The absorbance was determined using a microplate reader (SPECTROstar Nano, BMG Labtech GmbH). Two independent experiments were performed with five parallels for each condition. Cisplatin, a clinically used anticancer agent (Ebewe GmbH, Unterach, Austria), was included as a reference compound. Calculations were conducted using the GraphPad Prism 10.0 software (GraphPad Software Inc., San Diego, CA, USA).
(§2) Table S4 – Antiproliferative properties of Uncaria tomentosa extract, three natural products (isopteropodine, mitraphylline, and uncarine D) and the
(§3) reference agent cisplatin.
(§4) Cell line Uncaria tomentosa isopteropodine mitraphylline uncarine D [95% confidence
(§5) 1: The highest applied concentration was 90 μg/mL and 30 μM for the extract and the pure natural products, respectively.
(§6) 2: Inhibitions less than 20% compared to the untreated control were regarded as negligible and were not given numerically.
Background: Tetrazolium dyes change colour on reduction, which living cells bring about.

The test system of a further series is HeLa. Put plainly: Antiproliferative MTT assay. Type of series: cell-based, human. Particulars: 30 μM pure natural product, 72 h. As to the method: as §1, §2, §3, §4, §5, §6
In the next series the test system is SiHa. Put plainly: Antiproliferative MTT assay. Format: cell-based, human. Particulars: 72 h. As to the method: as §1, §2, §3, §4, §5, §6
The next series deals with C33A. The experiment in a line: Antiproliferative MTT assay. Format: cell-based, human. To be noted: 72 h. As to the method: as §1, §2, §3, §4, §5, §6
For a further series, the system named is A2780. The experiment in a line: Antiproliferative MTT assay. Type of series: cell-based, human. Particulars: 30 μM pure natural product, 72 h. As to the method:
as §1, §2, §3, §4, §5, §6

Another series deals with HEK293-Mock-B. The experiment in a line: Antiproliferative MTT assay. Format: cell-based, human. To be noted: 72 h. On the procedure:
as §1, §2, §3, §4, §5, §6

Another series deals with MCF7. Put plainly: Antiproliferative MTT assay. Format: cell-based, human. To be noted: 30 μM pure natural product, 72 h. On the procedure:
as §1, §2, §3, §4, §5, §6

The next series relates to HEK293-Mock. Put plainly: Antiproliferative MTT assay. Format: cell-based, human. To be noted: 72 h. As to the method: as §1, §2, §3, §4, §5, §6
The next series concerns T47D. Put plainly: Antiproliferative MTT assay. Type of series: cell-based, human. To be noted: 30 μM pure natural product, 72 h. On the procedure:
as §1, §2, §3, §4, §5, §6

In a further series the test system is MDA-MB-231. Put plainly: Antiproliferative MTT assay. Type of series: cell-based, human. To be noted: 30 μM pure natural product, 72 h. As to the method:
as §1, §2, §3, §4, §5, §6

For series [1], the system named is pregnane X receptor (PXR). To be noted: cited from earlier work.
In another series the test system is SERT. Details: method as in ref 153 (a number printed in a supplementary file, which may have a reference list of its own: not looked up in the article's list). To be noted: cited from earlier work.
For another series, the system named is DAT. Details: method as in ref 153 (a number printed in a supplementary file, which may have a reference list of its own: not looked up in the article's list). Particulars: cited from earlier work.
Another series relates to NET. Also on record: method as in ref 153 (a number printed in a supplementary file, which may have a reference list of its own: not looked up in the article's list). Particulars: cited from earlier work.
For a further series, the system named is HEK293-OCT2. Format: cell-based, human. On the procedure:
as §1, §2, §3, §4, §5, §6

For the next series, the system named is HEK293-OCT1. Type of series: cell-based, human. On the procedure:
as §1, §2, §3, §4, §5, §6

Another series has as its system HEK293-OAT1. Type of series: cell-based, human. On the procedure: as §1, §2, §3, §4, §5, §6
For a further series, the system named is HEK293-OATP2B1. Format: cell-based, human. As to the method:
as §1, §2, §3, §4, §5, §6

For the next series, the system named is HEK293-OATP1B3. Type of series: cell-based, human. As to the method:
as §1, §2, §3, §4, §5, §6

The mark [2] stands for this setting: read-out: cisplatin IC50 [95% confidence interval].

In the case of `CC(C)=CCC[C@](C)(O)[C@@H]1CC=C(C)CC1` [Alpha-bisbolol], the inhibition in the series on OATP1B1 and in the series on OATP1B3 was below 50% each time.
On to `O=C1CC(c2ccccc2)Oc2cc(O)cc(O)c21` (stereo not shown) [5,7-Dihydroxyflavanone], for which the inhibition in the series on OATP1B1 and in the series on OATP1B3 was below 50% in each case.
Take `CC(C)C1=CC2=CC[C@@H]3[C@](C)(CCC[C@@]3(C)C(=O)O)[C@H]2CC1` [Abietic acid]: the values for the Ki with OATP1B1 (first value of OATP1B1/3 pair) and in the series with OATP1B3 (second value of OATP1B1/3 pair) were 1.47 µM and 4.08 µM, respectively.
On to `CC1(C)C2CCC1(C)C(O)C2` (stereo not shown) [Borneol], for which the Type of interaction result in the series on rMDR1a, with rMRP1, in the series on rMRP2, with rNTCP and with rMRP4 was “inhibited the transcription” each time.
With `CC[C@H](CC[C@@H](C)[C@H]1CC[C@H]2[C@@H]3CC=C4C[C@@H](O)CC[C@]4(C)[C@H]3CC[C@]12C)C(C)C` [Beta-Sitosterol], the Type of interaction entry is reported as “no substrate, no inhibitor” with mouse MRP1; “no substrate, no inhibitor” in the series with Rat BSEP; “no substrate, no inhibitor” with MDR1; “probably substrate” in the series on ABCG5/8; “no substrate, no inhibitor” with mBCRP.
For `COC(=O)C1=CO[C@@H](C)[C@@H]2CN3CC[C@@]4(C(=O)Nc5ccccc54)[C@H]3C[C@H]12` [uncarine D], the “Cell growth inhibition at the highest concentration (% ± SEM)” value in the series on NIH/3T3 (30 μM pure natural product), in the series on HeLa, with SiHa (30 μM pure natural product), in the series with C33A (30 μM pure natural product), in the series on A2780 and with HEK293-Mock-B (30 μM pure natural product) was below 20% throughout. Also, the “Cell growth inhibition at the highest concentration (% ± SEM)” value in the series on MCF7, in the series on HEK293-Mock (30 μM pure natural product), in the series with T47D and in the series with MDA-MB-231 was below 20% each time.
With `C=C[C@H]1CN2CC[C@]3(C(=O)Nc4ccccc43)[C@@H]2C[C@@H]1/C(=C\OC)C(=O)OC` [corynoxeine], the PXR activation entry in [1] is given as “PXR activators”.
On to `COC(=O)C1=CO[C@@H](C)[C@@H]2CN3CC[C@]4(C(=O)Nc5ccccc54)[C@@H]3C[C@H]12` [pteropodine], for which the PXR activation entry in series [1] is recorded as “PXR activators”.
Take `COc1cc(O)cc(/C=C/c2ccccc2)c1` [Pinosylvin 3-(methyl ether)]: the inhibition in the series on OATP1B1 and in the series with OATP1B3 was below 50% each time.
With `CC1(C)CCC2(C(=O)O)CCC3(C)C(=CCC4C5(C)CCC(O)C(C)(CO)C5CCC43C)C2C1` (stereo not drawn) [alpha-Hederagenin], the IC50 (usually the concentration that gives 50% inhibition) is 0.00134 ± 4e-05 µM in the series with SERT, 0.00109 ± 0.00012 µM in the series on DAT and 0.00015 ± 2e-05 µM in the series on NET.
As to `CC[C@H](CC[C@@H](C)[C@H]1CC[C@H]2[C@@H]3CC=C4C[C@@H](O)CC[C@]4(C)[C@H]3CC[C@]12C)C(C)C` [Stigmast-5-en-3beta-ol], the inhibition in the series with OATP1B1 and in the series on OATP1B3 was below 50% in each case.
In the case of `N.N.[Cl][Pt][Cl]` [cisplatin, reference compound], the IC50 with HEK293-OCT2 is 5.51 µM; with HEK293-OCT1, 9.14 µM; in the series on HEK293-OAT1 it was 5.55 µM; in the series on HEK293-OATP2B1 it was 9.7 µM; with HEK293-OATP1B3 it was 11.2 µM; in the series on NIH/3T3 (setting [2]), 5.5 µM. The IC50 in the series with SiHa (setting [2]) came to 4.29 µM; in the series with C33A (setting [2]) it was 5.85 µM; with HEK293-Mock-B (setting [2]), 13.3 µM; in the series with HEK293-Mock (setting [2]), 19.5 µM.
As for `C=C[C@H]1CN2CC[C@@]3(C(=O)Nc4ccccc43)[C@@H]2C[C@@H]1/C(=C\OC)C(=O)OC` [isocorynoxeine], the PXR activation result in series [1] is listed as “PXR activators”.
